Like-named read-outs stand apart in the source and are kept apart here.

Test in all cases: Kinase panel study
Holding throughout (format): biochemical
Conditions in all cases: for inhibition at 1 µM: 1000nM

One experiment addresses T1, PIP5K1B (Homo sapiens, UniProt O14986).
T1 construct: purchased Thermo Fisher Scientific
In short, it runs like this: (§1)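 Inhibition was measured in an outsourced in vitro kinase panel using the ZLyte or Adapta format under the provider's standard procedures. Values are percent inhibition at 10 µM or 1 µM compound, and IC50s were also obtained.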

In a further experiment the target is T2, AKT1 (PKB alpha) (Homo sapiens, UniProt P31749).
T2 construct: purchased Thermo Fisher Scientific
T2 sequence (P31749 whole entry): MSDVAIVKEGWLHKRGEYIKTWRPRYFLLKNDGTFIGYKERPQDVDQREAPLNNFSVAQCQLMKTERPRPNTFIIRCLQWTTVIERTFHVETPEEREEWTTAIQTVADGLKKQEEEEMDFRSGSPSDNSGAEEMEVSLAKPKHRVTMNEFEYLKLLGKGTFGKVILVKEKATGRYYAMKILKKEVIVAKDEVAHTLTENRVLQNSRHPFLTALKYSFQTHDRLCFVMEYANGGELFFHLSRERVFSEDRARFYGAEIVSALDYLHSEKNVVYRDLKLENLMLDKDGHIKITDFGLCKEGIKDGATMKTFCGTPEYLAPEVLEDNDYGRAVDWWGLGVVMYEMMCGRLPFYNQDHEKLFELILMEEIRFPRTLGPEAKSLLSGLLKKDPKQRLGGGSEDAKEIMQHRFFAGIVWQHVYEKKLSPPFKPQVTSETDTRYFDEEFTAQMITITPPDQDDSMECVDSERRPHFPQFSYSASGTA
In short, it runs like this:
as §1

A further experiment concerns the target T3, EGFR (ErbB1) (Homo sapiens, UniProt P00533).
T3 construct: purchased Thermo Fisher Scientific
In short, it runs like this:
as §1

For another experiment, the target named is T4, LRRK2 (Homo sapiens, UniProt Q5S007).
T4 construct: purchased Thermo Fisher Scientific
T4 sequence (Q5S007 970-2527 limits assumed): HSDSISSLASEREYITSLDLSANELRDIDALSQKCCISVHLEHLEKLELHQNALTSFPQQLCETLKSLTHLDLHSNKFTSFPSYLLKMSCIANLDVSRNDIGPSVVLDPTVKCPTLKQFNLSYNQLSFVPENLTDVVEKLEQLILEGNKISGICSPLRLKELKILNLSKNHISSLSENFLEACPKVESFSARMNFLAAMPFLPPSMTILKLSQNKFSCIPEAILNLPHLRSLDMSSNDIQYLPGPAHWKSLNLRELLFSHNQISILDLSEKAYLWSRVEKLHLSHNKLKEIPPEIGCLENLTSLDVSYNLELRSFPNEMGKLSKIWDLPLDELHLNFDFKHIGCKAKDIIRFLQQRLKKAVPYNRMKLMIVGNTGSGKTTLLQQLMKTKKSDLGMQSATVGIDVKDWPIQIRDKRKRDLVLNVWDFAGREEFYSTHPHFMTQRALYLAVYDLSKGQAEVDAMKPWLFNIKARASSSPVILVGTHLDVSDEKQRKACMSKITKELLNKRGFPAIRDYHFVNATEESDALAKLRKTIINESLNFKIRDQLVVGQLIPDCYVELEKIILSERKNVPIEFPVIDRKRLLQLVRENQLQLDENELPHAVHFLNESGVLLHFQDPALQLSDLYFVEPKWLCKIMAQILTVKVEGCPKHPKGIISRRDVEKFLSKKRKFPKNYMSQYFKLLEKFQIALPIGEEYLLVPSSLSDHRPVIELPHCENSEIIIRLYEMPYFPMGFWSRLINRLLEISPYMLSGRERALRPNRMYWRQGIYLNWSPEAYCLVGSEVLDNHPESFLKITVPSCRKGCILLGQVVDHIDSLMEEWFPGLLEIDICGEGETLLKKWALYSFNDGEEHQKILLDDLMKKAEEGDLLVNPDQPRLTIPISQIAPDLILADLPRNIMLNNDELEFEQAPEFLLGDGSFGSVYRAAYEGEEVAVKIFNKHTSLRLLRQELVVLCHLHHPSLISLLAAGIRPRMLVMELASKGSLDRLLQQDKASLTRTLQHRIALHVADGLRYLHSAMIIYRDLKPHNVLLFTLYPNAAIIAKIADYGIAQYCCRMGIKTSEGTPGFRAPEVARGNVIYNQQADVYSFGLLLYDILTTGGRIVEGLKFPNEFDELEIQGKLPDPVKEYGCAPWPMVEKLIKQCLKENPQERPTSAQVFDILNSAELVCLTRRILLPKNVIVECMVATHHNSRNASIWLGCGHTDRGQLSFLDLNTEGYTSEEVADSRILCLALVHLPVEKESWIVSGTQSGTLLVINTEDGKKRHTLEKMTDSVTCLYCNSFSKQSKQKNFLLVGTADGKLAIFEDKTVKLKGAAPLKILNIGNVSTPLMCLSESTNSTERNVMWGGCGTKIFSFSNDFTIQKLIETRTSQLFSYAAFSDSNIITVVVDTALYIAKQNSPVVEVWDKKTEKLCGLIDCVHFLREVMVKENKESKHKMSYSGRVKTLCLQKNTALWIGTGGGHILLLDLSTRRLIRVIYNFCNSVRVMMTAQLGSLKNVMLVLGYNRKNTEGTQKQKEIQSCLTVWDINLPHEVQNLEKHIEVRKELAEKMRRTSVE
In short, it runs like this: as §1

A further experiment concerns the target T5, PI4KB (PI4K beta) (Homo sapiens, UniProt Q9UBF8).
T5 construct: purchased Thermo Fisher Scientific
In short, it runs like this:
as §1

For a further experiment, the target named is T6, PIP5K1C (Homo sapiens, UniProt O60331).
T6 construct: purchased Thermo Fisher Scientific
In short, it runs like this: as §1

The next experiment deals with T7, AKT2 (PKB beta) (Homo sapiens, UniProt P31751).
T7 construct: purchased Thermo Fisher Scientific
In short, it runs like this: as §1

The next experiment addresses T8, CSF1R (FMS) (Homo sapiens, UniProt P07333).
T8 construct: purchased Thermo Fisher Scientific
In short, it runs like this: as §1

Another experiment concerns the target T9, PRKCN (PKD3) (Homo sapiens, UniProt O94806).
T9 construct: purchased Thermo Fisher Scientific
T9 sequence (O94806 1-890): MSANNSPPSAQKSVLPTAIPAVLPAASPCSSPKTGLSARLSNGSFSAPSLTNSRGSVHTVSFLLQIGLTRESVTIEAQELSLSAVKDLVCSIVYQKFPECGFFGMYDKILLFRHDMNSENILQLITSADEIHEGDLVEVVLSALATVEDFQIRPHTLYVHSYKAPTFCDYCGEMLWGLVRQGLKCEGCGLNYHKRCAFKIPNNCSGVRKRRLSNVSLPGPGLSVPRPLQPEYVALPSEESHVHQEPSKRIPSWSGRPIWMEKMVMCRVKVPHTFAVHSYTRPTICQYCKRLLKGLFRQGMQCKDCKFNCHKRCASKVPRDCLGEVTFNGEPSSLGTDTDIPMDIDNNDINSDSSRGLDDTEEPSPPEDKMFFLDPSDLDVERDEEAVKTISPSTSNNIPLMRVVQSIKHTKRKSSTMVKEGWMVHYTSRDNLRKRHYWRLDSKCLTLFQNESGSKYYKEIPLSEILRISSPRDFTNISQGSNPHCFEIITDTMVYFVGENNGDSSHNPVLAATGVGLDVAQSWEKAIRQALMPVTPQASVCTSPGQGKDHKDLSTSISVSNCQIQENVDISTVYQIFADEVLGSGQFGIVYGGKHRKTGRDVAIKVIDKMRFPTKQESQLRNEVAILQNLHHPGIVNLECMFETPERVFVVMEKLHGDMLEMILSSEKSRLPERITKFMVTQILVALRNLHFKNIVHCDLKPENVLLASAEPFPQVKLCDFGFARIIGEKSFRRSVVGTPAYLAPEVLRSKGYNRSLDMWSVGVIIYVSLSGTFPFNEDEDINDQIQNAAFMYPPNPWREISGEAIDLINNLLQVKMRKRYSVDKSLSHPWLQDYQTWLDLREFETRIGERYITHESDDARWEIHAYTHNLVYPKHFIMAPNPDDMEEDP
In short, it runs like this:
as §1

In another experiment the target is T10, AKT3 (PKB gamma) (Homo sapiens, UniProt Q9Y243).
T10 construct: purchased Thermo Fisher Scientific
T10 sequence (Q9Y243 whole entry): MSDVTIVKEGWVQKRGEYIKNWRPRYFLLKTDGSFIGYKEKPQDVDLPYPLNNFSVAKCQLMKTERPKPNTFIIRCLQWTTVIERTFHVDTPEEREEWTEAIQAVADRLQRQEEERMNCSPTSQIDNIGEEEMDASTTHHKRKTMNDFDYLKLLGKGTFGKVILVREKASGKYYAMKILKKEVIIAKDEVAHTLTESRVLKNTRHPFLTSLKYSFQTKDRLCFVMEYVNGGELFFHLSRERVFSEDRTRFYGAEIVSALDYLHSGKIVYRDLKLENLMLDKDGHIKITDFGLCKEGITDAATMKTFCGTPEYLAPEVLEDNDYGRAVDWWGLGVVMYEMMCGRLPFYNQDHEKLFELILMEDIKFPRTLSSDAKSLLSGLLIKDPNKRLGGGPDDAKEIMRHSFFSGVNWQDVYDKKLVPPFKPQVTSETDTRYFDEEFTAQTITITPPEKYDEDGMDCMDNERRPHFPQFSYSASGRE
In short, it runs like this: as §1

Where [1] appears, read: read-out: Percentage of inhibition.
Where [2] appears, read: 10000nM, read-out: Percentage of inhibition.
The mark [3] stands for this setting: PIP5K1B, compound at 10µM, read-out: % of Inhibition.
The mark [4] stands for this setting: AKT1 (PKB alpha), compound at 10µM, read-out: % of Inhibition.
Setting [5] is: EGFR (ErbB1), compound at 10µM, read-out: % of Inhibition.
The mark [6] stands for this setting: LRRK2, compound at 10µM, read-out: % of Inhibition.
Setting [7] is: PI4KB (PI4K beta), compound at 10µM, read-out: % of Inhibition.
Where [8] appears, read: PIP5K1C, compound at 10µM, read-out: % of Inhibition.
Setting [9] is: AKT2 (PKB beta), compound at 10µM, read-out: % of Inhibition.
Setting [10] is: CSF1R (FMS), compound at 10µM, read-out: % of Inhibition.
Setting [11] is: PRKCN (PKD3), compound at 10µM, read-out: % of Inhibition.
Setting [12] is: AKT3 (PKB gamma), compound at 10µM, read-out: % of Inhibition.

T5 sequence (Q9UBF8 whole entry): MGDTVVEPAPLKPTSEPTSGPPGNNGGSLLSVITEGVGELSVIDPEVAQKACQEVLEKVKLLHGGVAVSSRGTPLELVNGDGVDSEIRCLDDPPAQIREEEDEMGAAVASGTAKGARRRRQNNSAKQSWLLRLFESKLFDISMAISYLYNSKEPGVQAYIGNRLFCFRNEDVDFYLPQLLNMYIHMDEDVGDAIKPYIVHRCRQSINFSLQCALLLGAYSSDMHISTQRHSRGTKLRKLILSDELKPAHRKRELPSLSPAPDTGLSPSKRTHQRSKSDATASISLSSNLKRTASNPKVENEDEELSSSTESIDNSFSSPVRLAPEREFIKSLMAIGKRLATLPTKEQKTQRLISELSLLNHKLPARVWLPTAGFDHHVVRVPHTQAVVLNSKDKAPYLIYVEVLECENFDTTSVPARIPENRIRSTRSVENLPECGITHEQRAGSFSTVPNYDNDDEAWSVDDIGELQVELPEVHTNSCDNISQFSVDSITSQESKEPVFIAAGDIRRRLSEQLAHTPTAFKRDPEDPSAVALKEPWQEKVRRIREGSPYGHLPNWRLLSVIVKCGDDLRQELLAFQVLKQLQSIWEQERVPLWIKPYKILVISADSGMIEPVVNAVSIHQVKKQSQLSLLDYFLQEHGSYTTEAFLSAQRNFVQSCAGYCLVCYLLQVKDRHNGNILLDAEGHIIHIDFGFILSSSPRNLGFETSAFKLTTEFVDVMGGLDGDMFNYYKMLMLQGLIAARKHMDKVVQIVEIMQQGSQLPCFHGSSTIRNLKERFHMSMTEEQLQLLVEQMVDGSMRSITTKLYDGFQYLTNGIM
T1 sequence (O14986 whole entry): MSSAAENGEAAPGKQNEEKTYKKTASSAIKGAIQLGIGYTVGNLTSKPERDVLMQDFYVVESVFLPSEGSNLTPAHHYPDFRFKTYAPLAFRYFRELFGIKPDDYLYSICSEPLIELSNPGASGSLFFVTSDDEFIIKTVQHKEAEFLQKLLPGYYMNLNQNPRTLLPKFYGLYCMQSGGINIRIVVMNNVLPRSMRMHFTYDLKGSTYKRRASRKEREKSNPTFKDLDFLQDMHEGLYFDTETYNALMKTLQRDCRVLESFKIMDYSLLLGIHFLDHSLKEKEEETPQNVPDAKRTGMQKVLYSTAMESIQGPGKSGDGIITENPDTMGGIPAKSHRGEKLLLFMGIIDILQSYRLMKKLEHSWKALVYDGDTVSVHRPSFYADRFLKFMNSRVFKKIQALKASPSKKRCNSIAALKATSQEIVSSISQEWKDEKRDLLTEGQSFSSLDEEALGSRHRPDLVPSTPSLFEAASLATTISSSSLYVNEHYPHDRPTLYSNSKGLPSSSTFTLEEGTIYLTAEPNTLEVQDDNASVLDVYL
T8 sequence (P07333 20-972): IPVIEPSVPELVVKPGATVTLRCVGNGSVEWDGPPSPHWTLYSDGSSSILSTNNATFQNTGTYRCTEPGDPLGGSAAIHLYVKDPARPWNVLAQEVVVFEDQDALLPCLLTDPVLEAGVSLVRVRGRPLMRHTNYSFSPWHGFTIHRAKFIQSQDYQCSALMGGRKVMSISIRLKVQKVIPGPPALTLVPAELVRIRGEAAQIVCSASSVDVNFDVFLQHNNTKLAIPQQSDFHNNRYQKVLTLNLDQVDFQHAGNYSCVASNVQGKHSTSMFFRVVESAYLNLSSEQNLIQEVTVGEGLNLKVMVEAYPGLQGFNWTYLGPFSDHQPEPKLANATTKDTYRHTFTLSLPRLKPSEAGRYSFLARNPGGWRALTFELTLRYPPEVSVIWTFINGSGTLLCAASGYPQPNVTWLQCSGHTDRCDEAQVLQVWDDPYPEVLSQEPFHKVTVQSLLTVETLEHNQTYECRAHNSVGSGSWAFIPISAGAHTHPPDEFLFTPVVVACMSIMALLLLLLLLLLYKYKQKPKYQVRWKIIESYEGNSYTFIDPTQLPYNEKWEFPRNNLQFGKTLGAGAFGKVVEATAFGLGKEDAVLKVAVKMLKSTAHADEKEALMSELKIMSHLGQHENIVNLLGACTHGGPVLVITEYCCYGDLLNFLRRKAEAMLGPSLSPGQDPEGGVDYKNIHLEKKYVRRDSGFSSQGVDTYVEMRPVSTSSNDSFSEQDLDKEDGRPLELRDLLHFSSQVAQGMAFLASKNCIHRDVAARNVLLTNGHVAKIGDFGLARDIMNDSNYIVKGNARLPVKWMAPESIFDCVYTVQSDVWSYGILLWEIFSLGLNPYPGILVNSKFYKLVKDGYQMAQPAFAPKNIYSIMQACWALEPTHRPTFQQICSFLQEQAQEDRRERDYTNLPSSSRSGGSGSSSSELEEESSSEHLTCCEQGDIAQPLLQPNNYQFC

A word on the inhibition: it is the drop in the measured response relative to a control, in per cent. In the case of `COc1ccc2c(c1OC)c(=O)n1c3ccc(O)cc3c3ccnc2c31` [MW01, 5-Hydroxy-10,11-dimethoxy-9H-benzo[c]indolo[3,2,1-ij][1,5]naphthyridin-9-one], the inhibition at 1 µM at PIP5K1B (setting [1]) was found to be 4%; on AKT1 (PKB alpha) (setting [1]) it was 5%; at EGFR (ErbB1) (setting [1]), 17%; at LRRK2 (setting [1]), 83%; at PI4KB (PI4K beta) (setting [1]), 94%; on PIP5K1C (setting [1]) it was 54%. The inhibition at 1 µM on AKT2 (PKB beta) (setting [1]) was 1%; on CSF1R (FMS) (setting [1]), 36%; at PRKCN (PKD3) (setting [1]), 34%; at AKT3 (PKB gamma) (setting [1]) it was 7%. Also, the inhibition at 10 µM at PIP5K1B (setting [2]) turned out to be 21%; at AKT1 (PKB alpha) (setting [2]), 10%; on EGFR (ErbB1) (setting [2]), 0%; at LRRK2 (setting [2]), 87%; at PI4KB (PI4K beta) (setting [2]) it was 100%; at PIP5K1C (setting [2]), 69%. Further, the inhibition at 10 µM on AKT2 (PKB beta) (setting [2]) is 9%; on CSF1R (FMS) (setting [2]), 51%; on PRKCN (PKD3) (setting [2]), 57%; on AKT3 (PKB gamma) (setting [2]), 18%.

Take `COc1ccc2c(c1)c1ccnc3c4nc(OC)ccc4c(=O)n2c13` [MW01-E6, 5,15-dimethoxy-1,11,14-triazapentacyclo[10.7.1,0^2,7.0^8,^20.0^13,^18]icosa-2(7),3,5,8(20),9,11,13(18),14,16-nonaen-19-one]: the inhibition at 10 µM at PIP5K1B (setting [3]) turned out to be 14%; at AKT1 (PKB alpha) (setting [4]), 6%; on EGFR (ErbB1) (setting [5]), 11%; on LRRK2 (setting [6]) it was 64%; at PI4KB (PI4K beta) (setting [7]) it was 12%; at PIP5K1C (setting [8]), 14%. The inhibition at 10 µM was 4% on AKT2 (PKB beta) (setting [9]), 33% at CSF1R (FMS) (setting [10]), -8% at PRKCN (PKD3) (setting [11]) and 12% on AKT3 (PKB gamma) (setting [12]).

For the compound `O=c1c2cc(O)ccc2c2nccc3c4cc(O)ccc4n1c32` [MW01-E10, 5,16-dihydroxy-1,11-diazapentacyclo[10.7.1.0^2,^7.0^8,^20.0^13,^18]icosa-2(7),3,5,8(20),9,11,13(18),14,16-nonaen-19-one], the inhibition at 10 µM worked out at 5% on PIP5K1B (setting [3]); 18% at AKT1 (PKB alpha) (setting [4]); 15% at EGFR (ErbB1) (setting [5]); 86% at LRRK2 (setting [6]); 90% on PI4KB (PI4K beta) (setting [7]); 33% at PIP5K1C (setting [8]). Besides, the inhibition at 10 µM amounted to 18% at AKT2 (PKB beta) (setting [9]), 61% on CSF1R (FMS) (setting [10]), 74% on PRKCN (PKD3) (setting [11]) and 24% on AKT3 (PKB gamma) (setting [12]).

In the case of `COc1ccc2c(c1)c1ccnc3c4ccnc(OC)c4c(=O)n2c13` [MW01-E14, 5,17-dimethoxy-1,11,16-triazapentacyclo[10.7.1.0^2,^7.0^8,^20.0^13,^18]icosa-2(7),3,5,8(20),9,11,13(18),14,16-nonaen-19-one], the inhibition at 10 µM at PIP5K1B (setting [3]) is 26%; on AKT1 (PKB alpha) (setting [4]), 9%; on EGFR (ErbB1) (setting [5]), 9%; on LRRK2 (setting [6]), -4%; at PI4KB (PI4K beta) (setting [7]) it was 36%; on PIP5K1C (setting [8]), 8%. Moreover, the inhibition at 10 µM on AKT2 (PKB beta) (setting [9]) is 14%; at CSF1R (FMS) (setting [10]), 18%; on PRKCN (PKD3) (setting [11]), -1%; at AKT3 (PKB gamma) (setting [12]) it was 23%.

In the case of `O=c1c2cnccc2c2nccc3c4cc(O)ccc4n1c32` [MW01-E18, 5-hydroxy-1,11,16-triazapentacyclo[10.7.1.0^2,^7.0^8,^20.0^13,^18]icosa-2(7),3,5,8(20),9,11,13(18),14,16-nonaen-19-one], the inhibition at 10 µM on PIP5K1B (setting [3]) is -3%; at AKT1 (PKB alpha) (setting [4]), 12%; at EGFR (ErbB1) (setting [5]), 14%; at LRRK2 (setting [6]) it was 75%; at PI4KB (PI4K beta) (setting [7]), 81%; on PIP5K1C (setting [8]) it was 27%. For the same compound, the inhibition at 10 µM at AKT2 (PKB beta) (setting [9]) was found to be 3%; at CSF1R (FMS) (setting [10]), 57%; at PRKCN (PKD3) (setting [11]), 52%; at AKT3 (PKB gamma) (setting [12]), 19%.

`COc1ccc2cc3c(N)nn(C(=O)c4cccc(N(C)C)c4)c3nc2c1` [MW05, (3-Amino-7-methoxypyrazolo[3,4-b]quinolin-1-yl)-[3-(dimethylamino)phenyl]methanone]: the inhibition at 1 µM at PIP5K1B (setting [1]) is -13%; on AKT1 (PKB alpha) (setting [1]) it was 3%; on EGFR (ErbB1) (setting [1]) it was 13%; on LRRK2 (setting [1]), -3%; on PI4KB (PI4K beta) (setting [1]), -2%; at PIP5K1C (setting [1]) it was -1%. Also, the inhibition at 1 µM at AKT2 (PKB beta) (setting [1]) amounted to 10%; on CSF1R (FMS) (setting [1]), 5%; at PRKCN (PKD3) (setting [1]), 17%; at AKT3 (PKB gamma) (setting [1]), 4%. The inhibition at 10 µM on PIP5K1B (setting [2]) stood at 7%; at AKT1 (PKB alpha) (setting [2]) it was 3%; on EGFR (ErbB1) (setting [2]), 5%; on LRRK2 (setting [2]), 5%; at PI4KB (PI4K beta) (setting [2]) it was 43%; at PIP5K1C (setting [2]), 26%. Also, the inhibition at 10 µM on AKT2 (PKB beta) (setting [2]) is -8%; at CSF1R (FMS) (setting [2]) it was -6%; on PRKCN (PKD3) (setting [2]), 15%; on AKT3 (PKB gamma) (setting [2]), -6%.

For `COc1ccc2nc3c(cc2c1)c(N)nn3C(=O)c1cccc(N(C)C)c1` [MW05-E2, 1-[3-(dimethylamino)benzoyl]-6-methoxy-1H-pyrazolo[3,4-b]quinolin-3-amine], the inhibition at 10 µM was -12% at PIP5K1B (setting [3]); 9% at AKT1 (PKB alpha) (setting [4]); 33% at EGFR (ErbB1) (setting [5]); 8% on LRRK2 (setting [6]); 9% on PI4KB (PI4K beta) (setting [7]); -2% at PIP5K1C (setting [8]). For the same compound, the inhibition at 10 µM at AKT2 (PKB beta) (setting [9]) came to 8%; at CSF1R (FMS) (setting [10]), 20%; at PRKCN (PKD3) (setting [11]), 7%; at AKT3 (PKB gamma) (setting [12]), 11%.

The values above are taken from EP4467141A1, “PYRAZOLO-QUINOLINES AS SELECTIVE INHIBITORS OF GENOTOXIC STRESS-INDUCED IKK/NF- KB PATHWAYS FOR CANCER THERAPY” (Max-Delbrück-Centrum für Molekulare Medizin in der …, priority 2023, dated 2024).
